Assay results as given in article PMC9718554, “Discovery of a fragment hit compound targeting D-Ala:D-Ala ligase of bacterial peptidoglycan biosynthesis” (Journal of Enzyme Inhibition and Medicinal Chemistry, 2022).
Like-named read-outs stand apart in the source and are kept apart here.

Experiments:
[1] = Solubility at tested concentrations (fragment library screening); type: physicochemical
Description: Supplement IENZ_A_2149745_SM2502.zip/DDlB_CDR05_SI_20221103.xlsx, sheet "Fragment library screening" | column: Solubility at tested concentrations

[2] = biological target: T1, E. coli DdlB enzyme (D-alanine:D-alanine ligase) (Escherichia coli, UniProt P07862); assay: biochemical; settings: read-out: DdlB RA; for remaining activity at 2400 µM: tested concentration 2.4 mM; for remaining activity at 1700 µM: tested concentration 1.7 mM; for remaining activity at 1900 µM: tested concentration 1.9 mM; for remaining activity at 2000 µM: tested concentration 2.0 mM; for remaining activity at 1800 µM: tested concentration 1.8 mM; for remaining activity at 2100 µM: tested concentration 2.1 mM; for remaining activity at 2600 µM: tested concentration 2.6 mM; for remaining activity at 2300 µM: tested concentration 2.3 mM; for remaining activity at 2200 µM: tested concentration 2.2 mM; for remaining activity at 2500 µM: tested concentration 2.5 mM
T1 construct: made in house; host or cells: E. coli

[3] = residual activity of DdlB, fragment library screening

Cc1ccc(CS(=O)(=O)N2CCCCC2)cc1 [Compound Y300-3037]
Solubility at tested concentrations ([1]; tested concentration 2.4 mM): not soluble
remaining activity at 2400 µM [2]: 88%

Oc1cccc2ccc(/C=C/c3ccc4c(c3)OCO4)nc12 [Compound 4896-3346]
Solubility at tested concentrations ([1]; tested concentration 1.7 mM): not soluble
remaining activity at 1700 µM ([2]; residual activity): 139%

Oc1cc(-c2ccccc2)cc2c1nnc1ncnn12 [Compound Y021-2954]
Solubility at tested concentrations ([1]; tested concentration 1.9 mM): not soluble
remaining activity at 1900 µM ([2]; residual activity): 79%

Cc1ccc(-c2csc(NC(=O)CO)n2)cc1 [Compound 8005-2972]
Solubility at tested concentrations ([1]; tested concentration 2.0 mM): not soluble
remaining activity at 2000 µM ([2]; residual activity): 88%

O=C(N/N=C/c1ccc2cccc(O)c2n1)c1ccco1 [Compound 8006-5465]
Solubility at tested concentrations ([1]; tested concentration 1.8 mM): not soluble
remaining activity at 1800 µM ([2]; residual activity): 72%

COc1ccc(-c2ncc(C(=O)O)c(=O)[nH]2)cc1OC [Compound 8020-2710]
Solubility at tested concentrations ([1]; tested concentration 1.8 mM): not soluble
remaining activity at 1800 µM ([2]; residual activity): 91%

O=C(Cc1ccc(Cl)cc1)Nc1nnc[nH]1 [Compound 7881-1517]
Solubility at tested concentrations ([1]; tested concentration 2.1 mM): not soluble
remaining activity at 2100 µM ([2]; residual activity): 79%

Oc1cccc2ccc(Nc3ccccn3)nc12 [Compound 0422-0008]
Solubility at tested concentrations ([1]; tested concentration 2.1 mM): not soluble
remaining activity at 2100 µM ([2]; residual activity): 31%

Cc1cccc(CNC(=O)c2ccc3cccc(O)c3n2)c1 [Compound C066-5543]
Solubility at tested concentrations ([1]; tested concentration 1.7 mM): not soluble
remaining activity at 1700 µM ([2]; residual activity): 94%

CCOc1ccc2c(c1)cc(C(=O)NC)n2C [Compound D291-1849]
Solubility at tested concentrations ([1]; tested concentration 2.6 mM): not soluble
remaining activity at 2600 µM [2]: 95%

O=C(O)c1ccc(N2Cc3ccccc3C2)cc1O [Compound 8005-9285]
Solubility at tested concentrations ([1]; tested concentration 2.0 mM): not soluble
remaining activity at 2000 µM ([2]; residual activity): 61%

N#Cc1c2c([nH]c(=O)c1C(=O)O)CCCC2 [Compound 8020-6318]
Solubility at tested concentrations ([1]; tested concentration 2.3 mM): not soluble
remaining activity at 2300 µM ([2]; residual activity): 93%

O=C(Cc1ccccc1[N+](=O)[O-])Nc1nnc[nH]1 [Compound 7882-1936]
Solubility at tested concentrations ([1]; tested concentration 2.0 mM): not soluble
remaining activity at 2000 µM ([2]; residual activity): 118%

Nc1cc(Br)cc2cccnc12 [Compound 8009-3726]
Solubility at tested concentrations ([1]; tested concentration 2.2 mM): not soluble
remaining activity at 2200 µM [2]: 89%

O=C(N/N=C/c1ccc2cccc(O)c2n1)c1ccccc1 [Compound 4539-0001]
Solubility at tested concentrations ([1]; tested concentration 1.7 mM): not soluble
remaining activity at 1700 µM ([2]; residual activity): 49%

Cc1cc(C)c2c(=O)[nH]n(C3CCCCCC3)c2n1 [Compound 8016-0079]
Solubility at tested concentrations ([1]; tested concentration 2.3 mM): not soluble
remaining activity at 2300 µM [2]: 81%

COc1cccc2c1ncc1c(=O)n3cccc(O)c3nc12 [Compound 8018-0164]
Solubility at tested concentrations ([1]; tested concentration 1.7 mM): not soluble
remaining activity at 1700 µM [2]: 72%

O=C(Cc1c[nH]c2ncccc12)NCC1CCCCC1 [Compound M508-0609]
Solubility at tested concentrations ([1]; tested concentration 1.8 mM): not soluble
remaining activity at 1800 µM ([2]; residual activity): 92%

O=C(NC1CCCCC1)c1ccc2cccc(O)c2n1 [Compound G900-0104]
Solubility at tested concentrations ([1]; tested concentration 1.8 mM): not soluble
remaining activity at 1800 µM ([2]; residual activity): 80%

Cc1c(Cl)ccc(S(N)(=O)=O)c1Cl [Compound 8011-1291]
Solubility at tested concentrations ([1]; tested concentration 2.1 mM): not soluble
remaining activity at 2100 µM [2]: 69%

O=C(O)c1cnc2c(OC(F)(F)F)cccc2c1O [Compound Y042-3118]
Solubility at tested concentrations ([1]; tested concentration 1.8 mM): not soluble
remaining activity at 1800 µM ([2]; residual activity): 88%

O=C(O)Cn1nc(C(F)(F)F)c2c1CCCC2 [Compound F235-1104]
remaining activity at 2400 µM [2]: 95%

Cc1ccccc1C(=O)N1CCCN(C)c2ccccc21 [Compound T599-3543]
remaining activity at 1800 µM ([2]; residual activity): 72%

O=c1[nH][nH]c2ccccc12 [FLD002]
remaining activity at 2500 µM [2, 3]: 89%

CC(=O)c1cc2c(cc1C)NC(C)(C)CC2C (stereo not shown) [Compound Y021-0953]
remaining activity at 2400 µM [2]: 97%

Cc1cccc(N)c1C#N [FLD086]
remaining activity at 2500 µM [2, 3]: 100%

OCc1noc(C2CC2)n1 [Compound 8020-1925]
remaining activity at 3900 µM ([2]; residual activity of DdlB, fragment library screening, tested concentration 3.9 mM): 98%

CC(=O)Nc1ccc(S(N)(=O)=O)cc1 [Compound 0405-0094]
remaining activity at 2300 µM [2]: 87%

Clc1nccs1 [FLD184]
remaining activity at 2500 µM [2, 3]: 98%

O=C(O)c1cnc(-c2ccc(F)cc2)nc1 [Compound 8020-5433]
remaining activity at 2300 µM [2]: 81%

CCNC(=O)N1CCC(c2noc(-c3ccccc3)n2)C1 (stereo not shown) [Compound S069-0392]
remaining activity at 1900 µM ([2]; residual activity): 94%

CC1CCCN(C(=O)c2nc[nH]c2C(=O)NC(C)C)C1 (stereo not shown) [Compound D340-0776]
remaining activity at 2000 µM ([2]; residual activity): 96%

O=C(O)CC1CCN(c2ccc(Cl)nn2)CC1 [Compound Y043-2007]
remaining activity at 2000 µM ([2]; fragment library screening): 90%

O=C(O)c1ccncc1F [FLD151]
remaining activity at 2500 µM [2, 3]: 98%

CCOc1c(Nc2ccc(OC)cc2)c(=O)c1=O [Compound G317-0026]
remaining activity at 2000 µM [2]: 93%

CCNC(=O)N1CCC(F)(C(=O)N2CCCC2)CC1 [Compound T502-1430]
remaining activity at 2200 µM ([2]; residual activity): 89%

Cn1nc(C(=O)O)c2c1CCOC2 [Compound P207-8979]
remaining activity at 3000 µM ([2]; residual activity of DdlB, fragment library screening, tested concentration 3.0 mM): 88%

CN1CCCCC(CC(=O)O)C1=O (stereo not shown) [Compound S581-1125]
remaining activity at 2700 µM ([2]; tested concentration 2.7 mM): 95%

CC(C)NS(=O)(=O)c1ccc(F)cc1 [Compound Y030-0983]
remaining activity at 2800 µM ([2]; tested concentration 2.8 mM): 94%

O=C(O)CCCn1cnc2ccc([N+](=O)[O-])cc2c1=O [Compound Y044-6460]
remaining activity at 1800 µM ([2]; fragment library screening): 63%

N#CCc1ccsc1 [FLD183]
remaining activity at 2500 µM [2, 3]: 100%

CCOc1c(N2CCC(C)CC2)c(=O)c1=O [Compound K906-2369]
remaining activity at 2200 µM [2]: 71%

O=c1c(O)c(Nc2ccc(CN3CCCCC3)cc2)c1=O [Compound G317-0765]
remaining activity at 1700 µM [2]: 92%

N#Cc1oc2ccccc2c1N [Compound 8019-4478]
remaining activity at 3500 µM ([2]; residual activity of DdlB, fragment library screening, tested concentration 3.5 mM): 85%

O=C(O)CCc1cccnc1 [FLD141]
remaining activity at 2500 µM [2, 3]: 95%

COc1cc(N)c(C#N)cc1OC [FLD048]
remaining activity at 2500 µM [2, 3]: 100%

Nc1ncn[nH]1 [FLD103]
remaining activity at 2500 µM [2, 3]: 95%

Cc1cccnc1C(=O)N1CCC2(CC1)CCC2(C)O (stereo not shown) [Compound S971-1225]
remaining activity at 2200 µM ([2]; residual activity): 97%

O=C1CSC2N1CCNC21CCCCC1 (stereo not shown) [Compound 8003-7360]
remaining activity at 2200 µM [2]: 90%

Cc1nc2c(C)cccn2c1C(=O)O [Compound 8019-6472]
remaining activity at 2600 µM [2]: 93%

Nc1ccc(Cl)cc1 [FLD080]
remaining activity at 2500 µM [2, 3]: 100%

CN(C)Cc1cc2cc(O)c(-c3cccnc3)cc2n1C [Compound H027-0236C]
remaining activity at 1600 µM ([2]; residual activity, tested concentration 1.6 mM): 84%

Oc1nonc1N1CCOCC1 [Compound 8018-8552]
remaining activity at 2900 µM ([2]; tested concentration 2.9 mM): 92%

Nc1ccc(-c2ccc(N)cc2)cc1 [FLD069]
remaining activity at 2500 µM [2, 3]: 70%

Cc1c(N)c(=O)n(-c2ccccc2)n1C [Compound 1254-0226]
remaining activity at 2500 µM [2]: 95%

CCc1occc(=O)c1O [FLD104]
remaining activity at 2500 µM [2, 3]: 86%

O=c1c(-c2ccccc2)c(N2CCOCC2)c1=O [Compound E470-0468]
remaining activity at 2100 µM [2]: 91%

CCOC(=O)c1ccc2oc(=O)[nH]c2c1 [Compound G373-0551]
remaining activity at 2400 µM [2]: 92%

Cc1cc(C)c2ccc(C(=O)O)cc2n1 [Compound 8019-7912]
remaining activity at 2500 µM [2]: 88%

NS(=O)(=O)c1ccccc1 [FLD110]
remaining activity at 2500 µM [2, 3]: 110%

O=C(Cc1c[nH]c2ncccc12)NCc1ccccc1 [Compound M508-0504]
remaining activity at 1900 µM ([2]; residual activity): 82%

O=C(NC1CC(=O)N(c2cccc(F)c2)C1)C1CC1 (stereo not shown) [Compound G856-7454]
remaining activity at 2300 µM [2]: 91%

CC(=O)Nc1cc(-n2cnnc2)ccc1C(=O)O [Compound 8020-0076]
remaining activity at 2000 µM ([2]; residual activity): 97%

CCN(CC)S(=O)(=O)c1ncn[nH]1 [Compound 8008-1932]
remaining activity at 2400 µM [2]: 93%
